Results on 6 compounds are retold here after patent US11584744B2 (UNIVERSITY OF WASHINGTON, priority 2017, dated 2023).

Test [1] concerns the target recombinant S. aureus MetRS enzyme (Staphylococcus aureus, UniProt A0A0H2XID2). Put plainly: Inhibition of SaMetRS, ATP depletion assay. Format: biochemical. The settings on record: read-out: (B) MetRS (S. aureus) IC50. Put shortly: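 N-terminal 6-His S. aureus MetRS (25 nM) was pre-incubated 15 min at room temperature with compound, 400 μg/mL E. coli tRNA and pyrophosphatase in HEPES-KOH pH 7.9, 2% DMSO. Reaction started with 150 nM ATP plus 20 μM L-methionine, ran 120 min; remaining ATP read by Kinase-Glo luminescence, IC50 by sigmoidal nonlinear regression.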

In test [2] the test system is S. aureus MRSA (ATCC 33591). Nature of the test: MIC susceptibility testing. As to conditions: MRSA ATCC33591; for MIC: Staphylococcus aureus, read-out: (G) MRSA (ATCC33591) MIC. The test is classed as cell-based, Staphylococcus aureus. The essentials: (§1)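 CLSI broth microdilution in triplicate, 5×10^5 CFU/mL final, ≤0.5% DMSO; MHB for S. aureus, CA-MHB for E. coli and E. faecium, CA-MHB plus 3% laked horse blood for S. pyogenes (5% CO2).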

Test [3] deals with E. faecium VRE (ATCC 51559). Put plainly: MIC susceptibility testing. Format: cell-based, Enterococcus faecium. The settings on record: E. faecium ATCC 51559; for MIC: Enterococcus faecium, read-out: (I) E. faecium (ATCC 51559) MIC. Put shortly:
as §1

In the next test the target is T1, MetRS (T. brucei) (Trypanosoma brucei brucei, UniProt Q38C91).
T1 sequence (Q38C91 1-773): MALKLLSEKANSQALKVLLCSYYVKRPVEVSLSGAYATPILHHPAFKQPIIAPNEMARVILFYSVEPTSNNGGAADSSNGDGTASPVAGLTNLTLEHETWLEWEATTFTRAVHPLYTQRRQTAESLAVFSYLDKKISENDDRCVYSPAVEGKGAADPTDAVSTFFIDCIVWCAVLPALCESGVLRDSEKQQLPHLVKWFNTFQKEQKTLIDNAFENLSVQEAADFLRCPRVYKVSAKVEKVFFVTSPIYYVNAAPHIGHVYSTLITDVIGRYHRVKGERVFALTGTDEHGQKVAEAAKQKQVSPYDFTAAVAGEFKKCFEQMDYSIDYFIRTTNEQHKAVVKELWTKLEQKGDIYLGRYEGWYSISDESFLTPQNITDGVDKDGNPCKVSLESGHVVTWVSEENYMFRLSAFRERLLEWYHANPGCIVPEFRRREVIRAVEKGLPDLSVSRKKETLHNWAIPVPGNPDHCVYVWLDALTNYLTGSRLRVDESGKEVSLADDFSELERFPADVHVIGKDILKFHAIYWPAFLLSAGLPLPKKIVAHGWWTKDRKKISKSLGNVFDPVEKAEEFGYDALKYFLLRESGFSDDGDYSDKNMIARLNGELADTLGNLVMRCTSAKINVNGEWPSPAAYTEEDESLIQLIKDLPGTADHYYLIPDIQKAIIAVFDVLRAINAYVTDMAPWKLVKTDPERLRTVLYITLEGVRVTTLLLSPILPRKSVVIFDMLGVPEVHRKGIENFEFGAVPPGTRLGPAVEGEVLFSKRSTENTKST
Nature of the test: MetRS (T. brucei) enzyme inhibition. The test is classed as biochemical.

The next test deals with MetRS (C. parvum) (Cryptosporidium parvum, UniProt Q5CVN0). Put plainly: MetRS (C. parvum) enzyme inhibition. The test is classed as biochemical. The settings on record: read-out: (C) MetRS (C. parvum) IC50.
MetRS (C. parvum), sequence (Q5CVN0 entry or part of it): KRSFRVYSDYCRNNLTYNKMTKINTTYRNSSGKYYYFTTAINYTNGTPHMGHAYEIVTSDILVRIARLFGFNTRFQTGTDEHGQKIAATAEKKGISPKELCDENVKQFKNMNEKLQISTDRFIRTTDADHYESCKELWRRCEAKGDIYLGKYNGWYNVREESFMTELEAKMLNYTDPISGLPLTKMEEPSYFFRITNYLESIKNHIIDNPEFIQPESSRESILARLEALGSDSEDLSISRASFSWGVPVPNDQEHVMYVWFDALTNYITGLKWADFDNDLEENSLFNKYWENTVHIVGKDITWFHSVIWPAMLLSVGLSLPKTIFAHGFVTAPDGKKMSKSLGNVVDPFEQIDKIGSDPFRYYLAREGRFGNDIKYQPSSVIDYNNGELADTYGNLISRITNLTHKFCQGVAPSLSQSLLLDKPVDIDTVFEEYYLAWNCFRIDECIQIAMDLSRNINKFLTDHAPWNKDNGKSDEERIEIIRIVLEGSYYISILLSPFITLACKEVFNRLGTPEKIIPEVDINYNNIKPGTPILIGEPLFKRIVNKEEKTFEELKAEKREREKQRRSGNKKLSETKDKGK
In another test the test system is T. cruzi. Put plainly: T. cruzi growth inhibition. The settings on record: read-out: (E) T. cruzi EC50. The test is classed as cell-based, Trypanosoma cruzi.
Test [4] concerns G. lamblia (ATCC GL50803). Put plainly: G. lamblia growth inhibition. Format: cell-based. As to conditions: Giardia duodenalis, read-out: (K) G. lamblia (ATCC GL50803) EC50.
Test [5] relates to S. aureus MSSA (ATCC 29213). Nature of the test: MIC susceptibility testing. Format: cell-based, Staphylococcus aureus. The settings on record: S. aureus ATCC 29213; for MIC: Staphylococcus aureus, read-out: (F) S. aureus (ATCC 29213) MIC.
The test system of a further test is T. brucei. Put plainly: T. brucei growth inhibition. Format: cell-based, Trypanosoma brucei. The settings on record: read-out: (D) T. brucei EC50.
In a further test the test system is C. parvum. Nature of the test: C. parvum growth inhibition. The settings on record: read-out: (J) C. parvum EC50. Format: cell-based, Cryptosporidium parvum.
Test [6] has as its system S. aureus (ATCC 29213). Put plainly: MBC determinations (with MIC). The test is classed as cell-based. The settings on record: Staphylococcus aureus, ATCC29213, S. aureus (ATCC 29213). As to the method: Maximum DMSO concentrations were 0.5%. […] Each experiment's inoculum was serially diluted and plated on TSA to count competent cells. Cultures were incubated at 37° C. for at least 20 h and plated on TSA for CFU determination.
MIC/MBC: Measurements of minimum bactericidal concentrations (MBCs) were done with the S. aureus strain ATCC 29213 (Table 5).

In test [7] the test system is S. aureus (ATCC 29213). The test is classed as cell-based, Staphylococcus aureus. As to conditions: 8× the MIC. As to the method: Resistance frequency rates determination: The spontaneous resistance frequency rates to test compounds was determined according to published methods. Agar selection plates were made by adding compound from DMSO stocks into molten Mueller Hinton agar in a 55° C. water bath. […] The final DMSO concentration was <0.1% per plate. Plates were dried in a sterile hood for 30 minutes prior to overnight storage at 4° C., and pre-warmed in the 37° C. incubator for 1 hour prior to assay.
A fresh overnight culture was diluted 1:50 in MHB and grown at 37° C. with shaking (150 rpm) until reaching an OD600 of 0.4 correlating to ˜2×10^9 CFUs/mL. Approximately 3 mL for a total of 6*10^9 CFUs were distributed onto 4 plates for each compound. Plates were incubated at 37° C. for 72 h prior to counting of colonies. The starting inoculum was also serially diluted and plated to quantify initial bacterial load. The resistance frequency was determined as the number of compound-resistant colonies divided by the total colonies plated.
Resistance frequency rates: The propensity for S. aureus to develop resistance to MetRS inhibitors was also studied (Table 6).

The next test has as its system S. aureus. Nature of the test: Serum shift assays (MIC with and without 50% human serum). Format: cell-based, Staphylococcus aureus. The settings on record: Staphylococcus aureus. As to the method:
Serum shift assays: To assess the role of protein binding on compound susceptibility, MIC determinations were performed in triplicate in the presence and absence of 50% human serum. Serial threefold dilutions of 2× compound were generated in MHB and aliquoted onto 96 well plates with a DMSO limit of 0.5%. Bacteria were adjusted to 1*10^8 CFUs/mL in MHB, then further diluted 1:100 in MHB and 100% heat deactivated filter sterilized pooled human serum. Fifty microliters were added to each well of the corresponding plates, and the plates were incubated at 37° C. for ˜20 h. The lowest concentration causing ≥90% growth inhibition was recorded as the MIC.

Each structure is given as a SMILES string. ≈ marks a conversion by molar mass, not a printed value. Where two headings read alike, the source gives them in different places. Where only a bound is given, the exact number is not on record here.

recombinant S. aureus MetRS enzyme, sequence (A0A0H2XID2 2-657): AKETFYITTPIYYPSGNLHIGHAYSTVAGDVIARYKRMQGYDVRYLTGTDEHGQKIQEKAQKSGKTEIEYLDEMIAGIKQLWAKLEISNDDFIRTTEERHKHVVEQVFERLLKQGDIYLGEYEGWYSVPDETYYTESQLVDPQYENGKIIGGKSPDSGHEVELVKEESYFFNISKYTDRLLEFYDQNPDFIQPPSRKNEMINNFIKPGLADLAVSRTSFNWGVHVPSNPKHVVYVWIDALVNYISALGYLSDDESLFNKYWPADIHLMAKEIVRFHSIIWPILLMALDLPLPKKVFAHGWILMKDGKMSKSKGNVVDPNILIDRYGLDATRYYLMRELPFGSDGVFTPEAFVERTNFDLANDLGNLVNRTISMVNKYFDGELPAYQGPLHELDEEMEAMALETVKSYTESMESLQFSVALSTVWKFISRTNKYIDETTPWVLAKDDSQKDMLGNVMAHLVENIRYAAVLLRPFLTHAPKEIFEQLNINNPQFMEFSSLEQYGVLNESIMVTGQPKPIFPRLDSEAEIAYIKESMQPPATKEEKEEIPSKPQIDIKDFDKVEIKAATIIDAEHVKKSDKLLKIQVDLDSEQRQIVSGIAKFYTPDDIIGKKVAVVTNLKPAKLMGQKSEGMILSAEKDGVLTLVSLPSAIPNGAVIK

In general, IC50 refers to the concentration that inhibits the measured activity by half. As a reminder, the MIC is the lowest concentration found to suppress growth. In general, EC50 refers to the concentration giving half of the maximal effect. For `CCn1c(Cc2ccc(Cl)cc2Cl)cn(Cc2nc3ccc(Cl)nc3[nH]2)c1=O` [Compound 2067, 1-({5-chloro-1H-imidazo[4,5-b]pyridin-2-yl}methyl)-4-[(2,4-dichlorophenyl)methyl]-3-ethyl-2,3-dihydro-1H-imidazol-2-one], the figures for the IC50 (in [1]; at MetRS (T. brucei); on MetRS (C. parvum)) were < 0.025 µM, < 0.04 µM and < 0.04 µM, respectively. Moreover, the “(G) MRSA (ATCC33591) MIC” value in test [2] amounted to 1.16 mg/L. The figures for the MIC in test [2] and in test [3] were 1.35 mg/L (≈ 3.09 µM) and > 2 mg/L, respectively. The 50% effective concentration (EC50) was found to be 0.0167 µM with T. cruzi (Trypanosoma cruzi), 0.0323 µM in the test on T. cruzi and 0.67 µM in [4].
For the compound `COc1ccc(-c2cccc3nc(Cc4nc5nc(Cl)ccc5[nH]4)cn23)c(Cl)c1` [Compound 2119, 2-({5-chloro-1H-imidazo[4,5-b]pyridin-2-yl}methyl)-5-(2-chloro-4-methoxyphenyl)imidazo[1,2-a]pyridine], the IC50 in [1] was < 0.025 µM; at MetRS (T. brucei), < 0.04 µM; on MetRS (C. parvum) it was < 0.04 µM. Also, the results for the MIC in test [2], in test [5] and in test [3] were 1.04 mg/L (≈ 2.45 µM), 0.285 mg/L (≈ 0.672 µM) and 0.727 mg/L (≈ 1.71 µM), respectively. Also, the EC50 is 0.018 µM in the test with T. brucei (Trypanosoma brucei); 0.0293 µM with T. brucei; 0.196 µM with T. cruzi (Trypanosoma cruzi); 0.48 µM in the test with C. parvum (Cryptosporidium parvum); 0.633 µM in the test with C. parvum; 0.06 µM in test [4].
With `COc1ccc(-c2cccc3nc(Cc4nc5nc(F)ccc5[nH]4)cn23)c(Cl)c1` [Compound 2122, 5-(2-chloro-4-methoxyphenyl)-2-({5-fluoro-1H-imidazo[4,5-b]pyridin-2-yl}methyl)imidazo[1,2-a]pyridine], the values for the IC50 (in [1]; at MetRS (T. brucei); at MetRS (C. parvum)) were < 0.025 µM, < 0.04 µM and < 0.04 µM, respectively. Moreover, the MIC in [2] was 0.909 mg/L (≈ 2.23 µM); in test [5], 0.419 mg/L (≈ 1.03 µM); in test [3], 0.263 mg/L (≈ 0.645 µM). Moreover, the EC50 in the test with T. brucei (Trypanosoma brucei) amounted to 0.0585 µM; in the test on T. cruzi (Trypanosoma cruzi), 0.703 µM; with C. parvum (Cryptosporidium parvum) it was 0.976 µM; in the test on C. parvum, 0.597 µM; in [4], 0.22 µM.
As to `COc1ccc(-c2cccc3c2CN(Cc2nc4nc(Cl)ccc4[nH]2)C3=O)c(Cl)c1` [Compound 2230, 2-((5-chloro-1H-imidazo[4,5-b]pyridin-2-yl)methyl)-4-(2-chloro-4-methoxyphenyl)isoindolin-1-one], the MIC was 0.165 mg/L (≈ 0.376 µM) in test [2], 0.393 mg/L (≈ 0.895 µM) in [5] and 0.0765 mg/L (≈ 0.174 µM) in test [3]. In test [5], the “(F) S. aureus (ATCC 29213) MIC” value turned out to be 0.304 mg/L. Moreover, the “(I) E. faecium (ATCC 51559) MIC” value in test [3] was found to be 0.134 mg/L. Further, the IC50 at MetRS (C. parvum) is < 0.04 µM. For the same compound, the EC50 with T. cruzi (Trypanosoma cruzi) stood at 0.028 µM; in the test with T. cruzi, 0.0396 µM; in the test with C. parvum (Cryptosporidium parvum), 0.211 µM; with C. parvum it was 0.196 µM; in test [4], 0.01 µM.
As for `COc1ccc(Cc2cn(Cc3nc4c(Cl)c(Cl)ccc4[nH]3)c(=O)n2CC(C)(C)O)c(Cl)c1` [Compound 2242, 4-[(2-chloro-4-methoxyphenyl)methyl]-1-[(6,7-dichloro-1H-1,3-benzodiazol-2-yl)methyl]-3-(2-hydroxy-2-methylpropyl)-2,3-dihydro-1H-imidazol-2-one], the results for the MIC in [2] and in [3] were 1.81 mg/L (≈ 3.55 µM) and 0.599 mg/L (≈ 1.17 µM), respectively. In addition, in [3], the “(I) E. faecium (ATCC 51559) MIC” value was found to be 0.847 mg/L. Moreover, the IC50 on MetRS (C. parvum) was < 0.04 µM. Besides, the concentration for a half-maximal effect (EC50) was determined as 0.00897 µM in the test on T. brucei (Trypanosoma brucei); 0.0118 µM in the test with T. brucei; 0.112 µM in the test on T. cruzi (Trypanosoma cruzi); 0.531 µM in the test with C. parvum (Cryptosporidium parvum); 0.8 µM with C. parvum; 0.05 µM in test [4].
By MBC is commonly meant the lowest tested concentration that kills the bacteria rather than only halting them. With `CO[C@@H]1[C@@H](OC(N)=O)[C@@H](O)[C@H](Oc2ccc3c(O)c(NC(=O)c4ccc(O)c(CC=C(C)C)c4)c(=O)oc3c2C)OC1(C)C` [NOV, novobiocin], the MIC in the test on S. aureus (ATCC 29213) [6] (MBC experiment (Table 5), read-out: MIC) is 0.156 mg/L (≈ 0.255 µM); with S. aureus (50% human serum, read-out: Avg MIC ± SEM (+50% serum)) it was 12.9 ± 1.97 mg/L; in the test with S. aureus (no serum, read-out: Avg MIC ± SEM (no serum)), 0.081 ± 0.02 mg/L. Further, the MBC in the test on S. aureus (ATCC 29213) [6] (concentration killing 99.9% of inoculum, read-out: MBC) was found to be 5 mg/L (≈ 8.16 µM). Further, in the test with S. aureus (ATCC 29213) [7] (72 h), the “Resistance frequency (Expt. 2)” value is reported as 1.58 × 10^−8. In the test with S. aureus (ATCC 29213) [7] (two independent experiments), the “Resistance frequency (average or greater #)” value is given as 1.58 × 10^−8.
